Laboratory results: US11970494B2, “6-heteroaryloxy benzimidazoles and azabenzimidazoles as JAK2 inhibitors” (Ajax Therapeutics, Inc., priority 2021, dated 2024)
Where two headings read alike, the source gives them in different places.

Columns and labels:
[1] = test system: JAK2-mediated pSTAT5 signaling in constitutively active essential thrombocytopenia cells carrying the V617F mutation; test: SET2-pSTAT5 Cellular Assay; format: cell-based; conditions: Homo sapiens
Procedure: This assay measures inhibition of JAK2-mediated pSTAT5 signaling in constitutively active essential thrombocytopenia cells carrying the V617F mutation. Cells are harvested from a flask into cell culture medium, and the number of cells is counted. The cells are diluted with culture medium and 100 μL of cell suspension (50000/well) is added into each well of a 96-well cell culture plate. A solution of test compound is added to the assay plate. The plates are covered with a lid and placed in a 37° C. 5% CO2 incubator for 4 hours. After 4 hours, the cells are spun, and the cell pellets are re-suspended with 100 μL cold PBS. Then, the cells are spun again at 4° C. and 4000 rpm for 5 min. PBS is aspirated, and 25 μL lysis buffer (with protease and phosphatase inhibitor cocktail) is added to each cell pellet. The cell lysate is shaken at 4° C. for 20 min to fully lyse the cells. The cell lysate is spun at 4° C. and 4000 rpm for 15 min, and then the supernatant is transferred into a new plate and stored at −80° C. Meso-scale discovery (MSD) is used to analyze plates as follows: a standard MSD plate is coated with capture antibody in PBS (40 μL/well) and is incubated at 4° C. overnight with shaking. The MSD plate is washed three times with 150 μL/well of 1×MSD Wash Buffer (Tris-buffered saline with 0.1% Tween® 20 detergent, TBST). The MSD plates are then blocked with 150 μL of blocking buffer (5% BSA in TBST) and shaken for 1 h at room temperature and 600 rpm. The MSD plate is washed three times with 150 μL/well of 1×MSD Wash Buffer (TBST). Sample lysates are then added to MSD plates (25 μL/well) and shaken for 1 h at room temperature and 600 rpm. The MSD plate is washed three times with 150 μL/well of 1×MSD Wash Buffer (TBST). Detection antibody (prepared in Antibody Detection buffer, 1% BSA in 1×TBST) is then added to the MSD plates, and they are shaken for 1 h at room temperature and 600 rpm. The MSD plate is washed three times with 150 μL/well of 1×MSD Wash Buffer (TBST). A secondary detection antibody (prepared in Antibody Detection buffer, 1% BSA in 1×TBST) is then added to the MSD plates, and they are shaken for 1 h at room temperature and 600 rpm. The MSD plate is washed three times with 150 μL/well of 1×MSD Wash Buffer (TBST). MSD reading buffer (1×) is added to the plates (150 μL/well), and they are diluted from 4× with water. The plates are imaged using an MSD imaging instrument according to the manufacturer's instructions.

[2] = Hepatocyte Stability Assay, rat hepatocytes; format: in vitro ADME; conditions: cryopreserved hepatocytes, read-out: Rat Heps CLint
Procedure: 10 mM stock solutions of test compound and positive control are prepared in DMSO. Stock solutions are diluted to 100 μM by combining 198 μL of 50% acetonitrile/50% water and 2 μL of 10 mM stock solution. Verapamil is used as positive control in the assay. Vials of cryopreserved hepatocytes are thawed in a 37° C. water bath with gently shaking. The contents are poured into the 50 mL thawing medium conical tube. Vials are centrifuged at 100 g for 10 minutes at room temperature. Thawing medium is aspirated and hepatocytes are re-suspended with serum-free incubation medium to yield ˜1.5×10^6 cells/mL. Cell viability and density are counted using a Trypan Blue exclusion, and then cells are diluted with serum-free incubation medium to a working cell density of 0.5×10^6 viable cells/mL. A portion of the hepatocytes at 0.5×10^6 viable cells/mL are boiled for 5 min prior to adding to the plate as negative control to eliminate the enzymatic activity so that little or no substrate turnover should be observed. Aliquots of 198 μL hepatocytes are dispensed into each well of a 96-well non-coated plate. The plate is placed in the incubator for approximately 10 minutes. Aliquots of 2 μL of the 100 μM test compound and 2 μL positive control are added into respective wells of a non-coated 96-well plate to start the reaction. The final concentration of test compound is 1 μM. This assay is performed in duplicate. The plate is incubated in the incubator for the designed time points. 25 μL of contents are transferred and mixed with 6 volumes (150 μL) of cold acetonitrile with internal standard (100 nM alprazolam, 200 nM labetalol, 200 nM caffeine and 200 nM diclofenac) to terminate the reaction at time points of 0, 15, 30, 60, 90 and 120 minutes. Samples are centrifuged for 25 minutes at 3,220 g and aliquots of 150 μL of the supernatants are used for LC-MS/MS analysis.

[3] = SET-2, SET2 cells, pSTAT5, 4 hours, MSD, read-out: IC50

| SMILES | IC50 [1, 3] [nM] | IC50 ([1]; SET-2, 4 h) [nM] | CLint scaled at 1 μM [2] [mL/min/kg] |
| --- | --- | --- | --- |
| COC(=O)Nc1cc(Oc2cnc3nc(Nc4cc(C(F)(F)F)cn(C)c4=O)n(C)c3c2C#N)ccn1 [Example I-3, Methyl (4-((7-cyano-1-methyl-2-((1-methyl-2-oxo-5-(trifluoromethyl)-1,2-dihydropyridin-3-yl)amino)-1H-imidazo[4,5-b]pyridin-6-yl)oxy)pyridin-2-yl)carbamate] |  | < 125 | < 17 |
| CN(C)C(=O)Nc1cc(Oc2cnc3nc(Nc4cc(C(F)(F)F)cn(C)c4=O)n(C)c3c2C#N)ccn1 [Example I-4, 3-(4-((7-cyano-1-methyl-2-((1-methyl-2-oxo-5-(trifluoromethyl)-1,2-dihydropyridin-3-yl)amino)-1H-imidazo[4,5-b]pyridin-6-yl)oxy)pyridin-2-yl)-1,1-dimethylurea] |  | < 125 | 17 to 35 |
| Cn1cc(C(F)(F)F)cc(Nc2nc3ncc(Oc4ccnc(NC(=O)OCCN5CCOCC5)c4)c(C#N)c3n2C)c1=O [Example I-15, 2-Morpholinoethyl(4-((7-cyano-1-methyl-2-((1-methyl-2-oxo-5-(trifluoromethyl)-1,2-dihydropyridin-3-yl)amino)-1H-imidazo[4,5-b]pyridin-6-yl)oxy)pyridin-2-yl)carbamate] | < 125 |  | < 17 |
| COC1CN(C(=O)Nc2cc(Oc3cnc4nc(Nc5cc6n(n5)CCCC6(F)F)n(C)c4c3C#N)ccn2)C1 [Example I-26, N-(4-((7-cyano-2-((4,4-difluoro-4,5,6,7-tetrahydropyrazolo[1,5-a]pyridin-2-yl)amino)-1-methyl-1H-imidazo[4,5-b]pyridin-6-yl)oxy)pyridin-2-yl)-3-methoxyazetidine-1-carboxamide] | 200 to 1000 |  | < 17 |
| Cn1c(Nc2cc3n(n2)CCOC3(C)C)nc2ncc(Oc3ccnc(NC(=O)O[C@@H]4CCOC4)c3)c(C#N)c21 [Example I-48, (R)-Tetrahydrofuran-3-yl(4-((7-cyano-2-((4,4-dimethyl-6,7-dihydro-4H-pyrazolo[5,1-c][1,4]oxazin-2-yl)amino)-1-methyl-1H-imidazo[4,5-b]pyridin-6-yl)oxy)pyridin-2-yl)carbamate] | 1000 to 5000 |  |  |
| CN(C)C(=O)Nc1cc(Oc2cnc3nc(Nc4cc5n(n4)CCC54CCC4)n(C)c3c2C#N)ccn1 [Example I-56, 3-(4-((7-cyano-2-((5′,6′-dihydrospiro[cyclobutane-1,4′-pyrrolo[1,2-b]pyrazol]-2′-yl)amino)-1-methyl-1H-imidazo[4,5-b]pyridin-6-yl)oxy)pyridin-2-yl)-1,1-dimethylurea] |  | 125 to 200 | 17 to 35 |
| COC(=O)Nc1cc(Oc2cnc3nc(Nc4cc5n(n4)CCC54CCC4)n(C)c3c2C#N)ccn1 [Example I-57, methyl(4-((7-cyano-2-((5′,6′-dihydrospiro[cyclobutane-1,4′-pyrrolo[1,2-b]pyrazol]-2′-yl)amino)-1-methyl-1H-imidazo[4,5-b]pyridin-6-yl)oxy)pyridin-2-yl)carbamate] |  | 125 to 200 | 35 to 45 |
| CO[C@@H]1CCN(C(=O)Nc2cc(Oc3cnc4nc(Nc5cc6n(n5)CCC65CCC5)n(C)c4c3C#N)ccn2)C1 [Example I-60, (R)-N-(4-((7-cyano-2-((5′,6′-dihydrospiro[cyclobutane-1,4′-pyrrolo[1,2-b]pyrazol]-2′-yl)amino)-1-methyl-1H-imidazo[4,5-b]pyridin-6-yl)oxy)pyridin-2-yl)-3-methoxypyrrolidine-1-carboxamide] | < 125 |  | 17 to 35 |
| COC1CN(C(=O)Nc2cc(Oc3cnc4nc(Nc5cc6n(n5)CCC65CCC5)n(C)c4c3C#N)ccn2)C1 [Example I-61, N-(4-((7-cyano-2-((5′,6′-dihydrospiro[cyclobutane-1,4′-pyrrolo[1,2-b]pyrazol]-2′-yl)amino)-1-methyl-1H-imidazo[4,5-b]pyridin-6-yl)oxy)pyridin-2-yl)-3-methoxyazetidine carboxamide] | < 125 |  | 35 to 45 |
| COCCOC(=O)Nc1cc(Oc2cnc3nc(Nc4cc5n(n4)CCC54CCC4)n(C)c3c2C#N)ccn1 [Example I-62, 2-methoxyethyl(4-((7-cyano-2-((5′,6′-dihydrospiro[cyclobutane-1,4′-pyrrolo[1,2-b]pyrazol]-2′-yl)amino)-1-methyl-1H-imidazo[4,5-b]pyridin-6-yl)oxy)pyridin-2-yl)carbamate] | < 125 |  | 17 to 35 |
| COCC(=O)Nc1cc(Oc2cnc3nc(Nc4cc(C(F)(F)F)cn(C)c4=O)n(C)c3c2C#N)ccn1 [Example I-79, N-(4-((7-cyano-1-methyl-2-((1-methyl-2-oxo-5-(trifluoromethyl)-1,2-dihydropyridin-3-yl)amino)-1H-imidazo[4,5-b]pyridin-6-yl)oxy)pyridin-2-yl)-2-methoxyacetamide] | < 125 |  | 17 to 35 |

Now from value to compound, other results behind:

| IC50 [1, 3] [nM] | SMILES | IC50 ([1]; SET-2, 4 h) [nM] | CLint scaled at 1 μM [2] [mL/min/kg] |
| --- | --- | --- | --- |
| < 125 | Cn1cc(C(F)(F)F)cc(Nc2nc3ncc(Oc4ccnc(NC(=O)N5CCC5)c4)c(C#N)c3n2C)c1=O [Example I-7, N-(4-((7-cyano-1-methyl-2-((1-methyl-2-oxo-5-(trifluoromethyl)-1,2-dihydropyridin-3-yl)amino)-1H-imidazo[4,5-b]pyridin-6-yl)oxy)pyridin-2-yl)azetidine-1-carboxamide] |  | 17 to 35 |
| < 125 | CO[C@H]1CCN(C(=O)Nc2cc(Oc3cnc4nc(Nc5cc(C(F)(F)F)cn(C)c5=O)n(C)c4c3C#N)ccn2)C1 [Example I-14, (S)-N-(4-((7-cyano-1-methyl-2-((1-methyl-2-oxo-5-(trifluoromethyl)-1,2-dihydropyridin-3-yl)amino)-1H-imidazo[4,5-b]pyridin-6-yl)oxy)pyridin-2-yl)-3-methoxypyrrolidine-1-carboxamide] |  | < 17 |
| < 125 | Cn1cc(C(F)(F)F)cc(Nc2nc3ncc(Oc4ccnc(NC(=O)O[C@@H]5CCOC5)c4)c(C#N)c3n2C)c1=O [Example I-18, (R)-Tetrahydrofuran-3-yl(4-((7-cyano-1-methyl-2-((1-methyl-2-oxo-5-(trifluoromethyl)-1,2-dihydropyridin-3-yl)amino)-1H-imidazo[4,5-b]pyridin-6-yl)oxy)pyridin-2-yl)carbamate] |  | 17 to 35 |
| < 125 | COCC(=O)Nc1cc(Oc2cnc3nc(Nc4cc(C(F)(F)F)cn(C)c4=O)n(C)c3c2Cl)ccn1 [Example I-75, N-(4-((7-chloro-1-methyl-2-((1-methyl-2-oxo-5-(trifluoromethyl)-1,2-dihydropyridin-3-yl)amino)-1H-imidazo[4,5-b]pyridin-6-yl)oxy)pyridin-2-yl)-2-methoxyacetamide] |  | < 17 |
| < 125 | CC(=O)Nc1cc(Oc2cnc3nc(Nc4cc(C(F)(F)F)cn(C)c4=O)n(C)c3c2Cl)c(F)cn1 [Example I-88, N-(4-((7-chloro-1-methyl-2-((1-methyl-2-oxo-5-(trifluoromethyl)-1,2-dihydropyridin-3-yl)amino)-1H-imidazo[4,5-b]pyridin-6-yl)oxy)-5-fluoropyridin-2-yl)acetamide] |  | 17 to 35 |
